Values of other authors in PubChem BioAssay AID1259409 (Chemical Carcinogenesis Research Information System (CCRIS), 2018).

System: rodent chemically induced tumor inhibition, incidence and multiplicity
Experiment: CCRIS tumor inhibitor studies

## OCC(S)CS (stereo unspecified)
Carcinogen: TRANS-5-AMINO-3-[2-(5-NITRO-2-FURYL)VINYL]-1,2,4-OXADIAZOLE;SQL8506, 28754-68-9, Carcinogen: TRANS-5-AMINO-3-[2-(5-NITRO-2-FURYL)VINYL]-1,2,4-OXADIAZOLE;SQL8506, 28754-68-9, Dose [Inhibitor]: 80 MG/KG 18 HR BEFORE THE 1ST CARCINOGEN DOSE FOLLOWED BY ADDITIONAL INJECTIONS IMMEDIATELY BEFORE EACH DOSE OF CARCINOG, Route [Inhibitor]: INTRAPERITONEAL, Species: MOUSE, Strain/Sex: CD-1/FEMALE, Target Tissue: Type of Lesion: LYMPHOID TISSUE: NONTHYMIC LYMPHOMA, Dose [Carcinogen]: 1 G/KG 2/D FOR 5 D EVERY 4 WK FOR 3 COURSES OF TREATMENT, Promoter: NONE USED
  tumour outcome (control, treated, inhibition, significance): 8/137 (6%), 1/26 (4%), 33%, not calculated
Carcinogen: TRANS-5-AMINO-3-[2-(5-NITRO-2-FURYL)VINYL]-1,2,4-OXADIAZOLE;SQL8506, 28754-68-9, Carcinogen: TRANS-5-AMINO-3-[2-(5-NITRO-2-FURYL)VINYL]-1,2,4-OXADIAZOLE;SQL8506, 28754-68-9, Dose [Inhibitor]: 80 MG/KG 18 HR BEFORE THE 1ST CARCINOGEN DOSE FOLLOWED BY ADDITIONAL INJECTIONS IMMEDIATELY BEFORE EACH DOSE OF CARCINOG, Route [Inhibitor]: INTRAPERITONEAL, Species: MOUSE, Strain/Sex: CD-1/FEMALE, Target Tissue: Type of Lesion: LYMPHOID TISSUE: THYMIC LYMPHOMA, Dose [Carcinogen]: 1 G/KG 2/D FOR 5 D EVERY 4 WK FOR 3 COURSES OF TREATMENT, Promoter: NONE USED
  tumour outcome (control, treated, inhibition, significance): 22/137 (16%), 4/26 (15%), 6%, not calculated
Carcinogen: TRANS-5-AMINO-3-[2-(5-NITRO-2-FURYL)VINYL]-1,2,4-OXADIAZOLE;SQL8506, 28754-68-9, Carcinogen: TRANS-5-AMINO-3-[2-(5-NITRO-2-FURYL)VINYL]-1,2,4-OXADIAZOLE;SQL8506, 28754-68-9, Dose [Inhibitor]: 80 MG/KG 18 HR BEFORE THE 1ST CARCINOGEN DOSE FOLLOWED BY ADDITIONAL INJECTIONS IMMEDIATELY BEFORE EACH DOSE OF CARCINOG, Route [Inhibitor]: INTRAPERITONEAL, Species: MOUSE, Strain/Sex: CD-1/FEMALE, Target Tissue: Type of Lesion: STOMACH: SQUAMOUS CARCINOMA, Dose [Carcinogen]: 1 G/KG 2/D FOR 5 D EVERY 4 WK FOR 3 COURSES OF TREATMENT, Promoter: NONE USED
  tumour outcome (control, treated, inhibition, significance): 60/137 (44%), 14/26 (54%), -23%, not calculated

## CCOC(=S)S
Carcinogen: N-NITROSO-DIETHYLAMINE, 55-18-5, Dose [Inhibitor]: 12.5 MG/KG IN DRINKING WATER ADMINISTERED SIMULTANEOUSLY WITH CARCINOGEN (STUDY DURATION: 28 WK), Route [Inhibitor]: ORAL, Species: RAT, Strain/Sex: BD6/MALE, Target Tissue: Type of Lesion: LIVER: TUMOR, Dose [Carcinogen]: 80 MG/KG 1/WK FOR 10 WK, Promoter: NONE USED
  tumour outcome (control, treated, inhibition, significance): 12/14 (86%), 10/14 (71%), 16%, p>0.05
Carcinogen: N-NITROSO-DIETHYLAMINE, 55-18-5, Dose [Inhibitor]: 25 MG/KG IN DRINKING WATER PLUS 100 MG/KG 1 HR BEFORE CARCINOGEN ADMINISTERED SIMULTANEOUSLY WITH CARCINOGEN (STUDY DURA, Route [Inhibitor]: ORAL, Species: RAT, Strain/Sex: BD6/MALE, Target Tissue: Type of Lesion: LIVER: TUMOR, Dose [Carcinogen]: 80 MG/KG 1/WK FOR 10 WK, Promoter: NONE USED
  tumour outcome (control, treated, inhibition, significance): 12/14 (86%), 6/12 (50%), 42%, p<0.05

## COC(=O)/C(C)=C/C=C/C(C)=C\C=C\C=C(C)\C=C\C=C(C)\C=C\C1=C(C)CCCC1(C)C
Carcinogen: BENZO[A]PYRENE, 50-32-8, Dose [Inhibitor]: 0, 4.7 MICROMOLAR/D IN 0.1 ML PEANUT OIL BEGINNING 2 WK PRIOR TO CARCINOGEN TREATMENT AND CONTINUING TO 2 WK POST CARCIN, Route [Inhibitor]: GAVAGE, Species: MOUSE, Strain/Sex: SWISS/FEMALE, Target Tissue: Type of Lesion: FORESTOMACH: TUMOR, Dose [Carcinogen]: 1 MG 2/WK IN 0.1 ML PEANUT OIL FOR 4 WK, Promoter: NONE USED
  tumour outcome (control, treated, inhibition, significance): 20/20 (100%), 4/20 (20%), 80%, p<0.001

## CC1=CCCC(C)(C)[C@H]1/C=C/C(C)=C/C=C/C(C)=C/C=C/C=C(C)/C=C/C=C(C)/C=C/C1=C(C)CCCC1(C)C
Carcinogen: 4-NITROQUINOLINE-1-OXIDE, 56-57-5, Dose [Inhibitor]: 0, 0.05% IN DRINKING WATER AD LIBITUM (STUDY DURATION: 30 WK), Route [Inhibitor]: ORAL, Species: MOUSE, Strain/Sex: DDY/MALE, Target Tissue: Type of Lesion: LUNG: TUMOR, Dose [Carcinogen]: 10 MG/KG BW IN OLIVE OIL/CHOLESTEROL (20:1) ONCE, Promoter: GLYCEROL, 56-81-5
  tumour outcome (control, treated, inhibition, significance): 94%, 73%, 22%, not significant
Carcinogen: 4-NITROQUINOLINE-1-OXIDE, 56-57-5, Dose [Inhibitor]: 0, 0.05% IN DRINKING WATER BEGINNING 5 WK POST CARCINOGEN TREATMENT AND CONTINUING FOR 25 WK (STUDY DURATION: 30 WK), Route [Inhibitor]: ORAL, Species: MOUSE, Strain/Sex: DDY/MALE, Target Tissue: Type of Lesion: LUNG: TUMORS, Dose [Carcinogen]: 10 MG/KG BW IN OLIVE OIL AND CHOLESTEROL (20:1) ONCE, Promoter: NONE USED
  tumour outcome (control, treated, inhibition, significance): 94%, 73%, 22%, not calculated
Carcinogen: 7,12-DIMETHYLBENZ[A]ANTHRACENE, 57-97-6, Dose [Inhibitor]: 0, 0.05% IN DRINKING WATER AD LIBITUM FOR 30 WK BEGINNING 1 WK POST CARCINOGEN DOSE (STUDY DURATION: 31 WK), Route [Inhibitor]: ORAL, Species: MOUSE, Strain/Sex: ICR/FEMALE, Target Tissue: Type of Lesion: SKIN: TUMOR, Dose [Carcinogen]: 100 UG ONCE, Promoter: 12-O-TETRADECANOYLPHORBOL-13-ACETATE, 16561-29-8
  tumour outcome (control, treated, inhibition, significance): 13/16 (81%), 7/16 (44%), 46%, not significant
Carcinogen: 7,12-DIMETHYLBENZ[A]ANTHRACENE, 57-97-6, Dose [Inhibitor]: 0, 200 NMOL IN 200 µL ACETONE 2/WK BEGINNING 1 WK POST CARCINOGEN DOSE APPLIED SIMULTANEOUSLY WITH PROMOTER FOR 20 WK (S, Route [Inhibitor]: DERMAL, Species: MOUSE, Strain/Sex: ICR/?, Target Tissue: Type of Lesion: SKIN: PAPILLOMA, Dose [Carcinogen]: 100 UG ONCE, Promoter: 12-O-TETRADECANOYLPHORBOL-13-ACETATE, 16561-29-8
  tumour outcome (control, treated, inhibition, significance): 69%, 25%, 64%, not calculated
Carcinogen: 7,12-DIMETHYLBENZ[A]ANTHRACENE, 57-97-6, Dose [Inhibitor]: 0, 200 NMOL IN 200 µL ACETONE 2/WK FOR 40 WK APPLIED SIMULTANEOUSLY WITH PROMOTER BEGINNING 1 WK POST CARCINOGEN DOSE (S, Route [Inhibitor]: DERMAL, Species: MOUSE, Strain/Sex: ICR/FEMALE, Target Tissue: Type of Lesion: SKIN: TUMOR, Dose [Carcinogen]: 100 UG ONCE, Promoter: 12-O-TETRADECANOYLPHORBOL-13-ACETATE, 16561-29-8
  tumour outcome (control, treated, inhibition, significance): 10/15 (67%), 5/15 (33%), 51%, p<0.01
Carcinogen: 7,12-DIMETHYLBENZ[A]ANTHRACENE, 57-97-6, Dose [Inhibitor]: 0, 400 NMOL IN 200 µL ACETONE 2/WK BEGINNING 1 WK POST CARCINOGEN DOSE APPLIED SIMULTANEOUSLY WITH PROMOTER FOR 20 WK (S, Route [Inhibitor]: DERMAL, Species: MOUSE, Strain/Sex: ICR/?, Target Tissue: Type of Lesion: SKIN: PAPILLOMA, Dose [Carcinogen]: 100 UG ONCE, Promoter: 12-O-TETRADECANOYLPHORBOL-13-ACETATE, 16561-29-8
  tumour outcome (control, treated, inhibition, significance): 69%, 13%, 81%, not calculated
Carcinogen: NONE USED, Dose [Inhibitor]: 0, 0.005% IN DRINKING WATER AD LIBITUM FOR 40 WK (STUDY DURATION: 40 WK), Route [Inhibitor]: ORAL, Species: MOUSE, Strain/Sex: C3H/HE/MALE, Target Tissue: Type of Lesion: LIVER: TUMOR, Promoter: NONE USED
  tumour outcome (control, treated, inhibition, significance): 100%, 100%, 0%, not significant
Carcinogen: NONE USED, Dose [Inhibitor]: 0, 0.005% IN DRINKING WATER FOR 40 WK (STUDY DURATION: 40 WK), Route [Inhibitor]: ORAL, Species: MOUSE, Strain/Sex: C3H/HE/MALE, Target Tissue: Type of Lesion: LIVER: TUMORS, Promoter: NONE USED
  tumour outcome (control, treated, inhibition, significance): 16/16 (100%), 15/15 (100%), 0%, not significant
Carcinogen: NONE USED, Dose [Inhibitor]: 0, 0.05% IN DRINKING WATER AD LIBITUM FOR 40 WK (STUDY DURATION: 40 WK), Route [Inhibitor]: ORAL, Species: MOUSE, Strain/Sex: C3H/HE/MALE, Target Tissue: Type of Lesion: LIVER: TUMOR, Promoter: NONE USED
  tumour outcome (control, treated, inhibition, significance): 100%, 94%, 6%, not significant
Carcinogen: NONE USED, Dose [Inhibitor]: 0, 0.05% IN DRINKING WATER FOR 40 WK (STUDY DURATION: 40 WK), Route [Inhibitor]: ORAL, Species: MOUSE, Strain/Sex: C3H/HE/MALE, Target Tissue: Type of Lesion: LIVER: TUMORS, Promoter: NONE USED
  tumour outcome (control, treated, inhibition, significance): 16/16 (100%), 16/17 (94%), 6%, not calculated
